Reference: patent US10681909B2, “Herbicidal triazoles” (FMC Corporation, priority 2014, dated 2020)

What was measured:
Conditions in all cases: scale 0 to 100
lambsquarters = experiment: Test E preemergence; type: in vivo, Chenopodium album
Procedure, shortened: (§1)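 Visual rating vs untreated controls, 0 = no effect, 100 = complete control, 14–21 d after treatment in greenhouse. Pre: silt loam soil, sprayed at planting. Post: peat/vermiculite medium, plants 2–18 cm, 1–4 leaves. Solvent + surfactant formulation.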

pigweed, palmer = experiment: Test E preemergence; type: in vivo, Amaranthus palmeri
Procedure, shortened: as §1

goosegrass = experiment: Test E preemergence; type: in vivo, Eleusine indica
Procedure, shortened: as §1

johnsongrass = experiment: Test E preemergence; type: in vivo, Sorghum halepense
Procedure, shortened: as §1

barnyardgrass [1] = experiment: Test E preemergence; type: in vivo, Echinochloa crus-galli
Procedure, shortened: as §1

arrowleaf sida [2] = experiment: Test E preemergence; type: in vivo, Sida rhombifolia
Procedure, shortened: as §1

field bindweed [3] = experiment: Test E preemergence; type: in vivo, Convolvulus arvensis
Procedure, shortened: as §1

nightshade = experiment: Test E preemergence; type: in vivo, Solanum ptycanthum
Procedure, shortened: as §1

velvetleaf = experiment: Test E preemergence; type: in vivo, Abutilon theophrasti
Procedure, shortened: as §1

corn = experiment: Test E postemergence; type: in vivo, Zea mays
Procedure, shortened: as §1

soybean = experiment: Test E postemergence; type: in vivo, Glycine max
Procedure, shortened: as §1

[4] = system: waterhemp_RES1 (ALS & Triazine resistant common waterhemp); experiment: Test E postemergence; type: in vivo, Amaranthus rudis
Procedure, shortened: as §1

[5] = system: waterhemp_RES2 (ALS & HPPD resistant common waterhemp); experiment: Test E postemergence; type: in vivo, Amaranthus rudis
Procedure, shortened: as §1

waterhemp = experiment: Test E postemergence; type: in vivo, Amaranthus rudis
Procedure, shortened: as §1

panicum, fall = experiment: Test E postemergence; type: in vivo, Panicum dichotomiflorum
Procedure, shortened: as §1

barnyardgrass [6] = experiment: Test E postemergence; type: in vivo, Echinochloa crus-galli
Procedure, shortened: as §1

sandbur = experiment: Test E postemergence; type: in vivo, Cenchrus echinatus
Procedure, shortened: as §1

arrowleaf sida [7] = experiment: Test E postemergence; type: in vivo, Sida rhombifolia
Procedure, shortened: as §1

field bindweed [8] = experiment: Test E postemergence; type: in vivo, Convolvulus arvensis
Procedure, shortened: as §1

beggarticks = experiment: Test E postemergence; type: in vivo, Bidens pilosa
Procedure, shortened: as §1

SMILES: CCc1nc(-c2ccc(C(F)(F)F)cc2)nn1Cc1ccnc(C(F)(F)F)c1 [Compound 1, 4-[[5-ethyl-3-[4-(trifluoromethyl)phenyl]-1H-1,2,4-triazol-1-yl]methyl]-2-(trifluoromethyl)pyridine]
- Plant response rating (lambsquarters; 16 g ai/ha): 10
- Plant response rating (lambsquarters; 31 g ai/ha): 65
- Plant response rating (lambsquarters; 62 g ai/ha): 90
- Plant response rating (lambsquarters; 125 g ai/ha): 95
- Plant response rating (lambsquarters; 250 g ai/ha): 95
- Plant response rating (pigweed, palmer; 16 g ai/ha): 80
- Plant response rating (pigweed, palmer; 62 g ai/ha): 98
- Plant response rating (pigweed, palmer; 125 g ai/ha): 100
- Plant response rating (pigweed, palmer; 250 g ai/ha): 100
- Plant response rating (goosegrass; 16 g ai/ha): 50
- Plant response rating (goosegrass; 31 g ai/ha): 60
- Plant response rating (goosegrass; 62 g ai/ha): 60
- Plant response rating (goosegrass; 125 g ai/ha): 75
- Plant response rating (goosegrass; 250 g ai/ha): 100
- Plant response rating (johnsongrass; 16 g ai/ha): 10
- Plant response rating (johnsongrass; 31 g ai/ha): 15
- Plant response rating (johnsongrass; 62 g ai/ha): 40
- Plant response rating (johnsongrass; 125 g ai/ha): 50
- Plant response rating (johnsongrass; 250 g ai/ha): 60
- Plant response rating (barnyardgrass [1]; 16 g ai/ha): 0
- Plant response rating (barnyardgrass [1]; 31 g ai/ha): 10
- Plant response rating (barnyardgrass [1]; 62 g ai/ha): 30
- Plant response rating (barnyardgrass [1]; 125 g ai/ha): 30
- Plant response rating (barnyardgrass [1]; 250 g ai/ha): 50
- Plant response rating (arrowleaf sida [2]; 16 g ai/ha): 0
- Plant response rating (arrowleaf sida [2]; 31 g ai/ha): 10
- Plant response rating (arrowleaf sida [2]; 62 g ai/ha): 20
- Plant response rating (arrowleaf sida [2]; 125 g ai/ha): 20
- Plant response rating (arrowleaf sida [2]; 250 g ai/ha): 50
- Plant response rating (field bindweed [3]; 16 g ai/ha): 0
- Plant response rating (field bindweed [3]; 31 g ai/ha): 10
- Plant response rating (field bindweed [3]; 62 g ai/ha): 30
- Plant response rating (field bindweed [3]; 125 g ai/ha): 40
- Plant response rating (field bindweed [3]; 250 g ai/ha): 50
- Plant response rating (nightshade; 16 g ai/ha): 50
- Plant response rating (nightshade; 62 g ai/ha): 75
- Plant response rating (nightshade; 125 g ai/ha): 90
- Plant response rating (nightshade; 250 g ai/ha): 95
- Plant response rating (velvetleaf; 16 g ai/ha): 0
- Plant response rating (velvetleaf; 31 g ai/ha): 10
- Plant response rating (velvetleaf; 62 g ai/ha): 10
- Plant response rating (velvetleaf; 125 g ai/ha): 30
- Plant response rating (velvetleaf; 250 g ai/ha): 50
- Plant response rating (corn; 16 g ai/ha): 5
- Plant response rating (corn; 31 g ai/ha): 5
- Plant response rating (corn; 62 g ai/ha): 5
- Plant response rating (corn; 125 g ai/ha): 10
- Plant response rating (corn; 250 g ai/ha): 10
- Plant response rating (soybean; 16 g ai/ha): 40
- Plant response rating (soybean; 31 g ai/ha): 40
- Plant response rating (soybean; 62 g ai/ha): 50
- Plant response rating (soybean; 125 g ai/ha): 50
- Plant response rating (soybean; 250 g ai/ha): 65
- Plant response rating ([4]; 16 g ai/ha): 90
- Plant response rating ([4]; 31 g ai/ha): 90
- Plant response rating ([4]; 62 g ai/ha): 90
- Plant response rating ([4]; 125 g ai/ha): 95
- Plant response rating ([4]; 250 g ai/ha): 95
- Plant response rating ([5]; 16 g ai/ha): 80
- Plant response rating ([5]; 31 g ai/ha): 85
- Plant response rating ([5]; 62 g ai/ha): 85
- Plant response rating ([5]; 125 g ai/ha): 90
- Plant response rating ([5]; 250 g ai/ha): 95
- Plant response rating (waterhemp; 16 g ai/ha): 65
- Plant response rating (waterhemp; 31 g ai/ha): 80
- Plant response rating (waterhemp; 62 g ai/ha): 90
- Plant response rating (waterhemp; 125 g ai/ha): 95
- Plant response rating (waterhemp; 250 g ai/ha): 95
- Plant response rating (panicum, fall; 16 g ai/ha): 10
- Plant response rating (panicum, fall; 31 g ai/ha): 20
- Plant response rating (panicum, fall; 62 g ai/ha): 20
- Plant response rating (panicum, fall; 125 g ai/ha): 20
- Plant response rating (panicum, fall; 250 g ai/ha): 30
- Plant response rating (barnyardgrass [6]; 16 g ai/ha): 10
- Plant response rating (barnyardgrass [6]; 31 g ai/ha): 10
- Plant response rating (barnyardgrass [6]; 62 g ai/ha): 15
- Plant response rating (barnyardgrass [6]; 125 g ai/ha): 20
- Plant response rating (barnyardgrass [6]; 250 g ai/ha): 30
- Plant response rating (sandbur; 16 g ai/ha): 10
- Plant response rating (sandbur; 31 g ai/ha): 15
- Plant response rating (sandbur; 62 g ai/ha): 15
- Plant response rating (sandbur; 125 g ai/ha): 20
- Plant response rating (sandbur; 250 g ai/ha): 20
- Plant response rating (arrowleaf sida [7]; 16 g ai/ha): 30
- Plant response rating (arrowleaf sida [7]; 31 g ai/ha): 40
- Plant response rating (arrowleaf sida [7]; 62 g ai/ha): 50
- Plant response rating (arrowleaf sida [7]; 125 g ai/ha): 70
- Plant response rating (arrowleaf sida [7]; 250 g ai/ha): 85
- Plant response rating (field bindweed [8]; 16 g ai/ha): 40
- Plant response rating (field bindweed [8]; 31 g ai/ha): 55
- Plant response rating (field bindweed [8]; 62 g ai/ha): 65
- Plant response rating (field bindweed [8]; 125 g ai/ha): 65
- Plant response rating (field bindweed [8]; 250 g ai/ha): 75
- Plant response rating (beggarticks; 16 g ai/ha): 20
- Plant response rating (beggarticks; 31 g ai/ha): 40
- Plant response rating (beggarticks; 62 g ai/ha): 40
- Plant response rating (beggarticks; 125 g ai/ha): 50
- Plant response rating (beggarticks; 250 g ai/ha): 60
